Test results taken from ChEMBL document CHEMBL1201862, “PubChem BioAssay data set” (2004).
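Cultured in 96-well plates, cells were exposed to test compound for 48 hours across five concentrations. GI50 marks 50% less growth.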 The source made the active and inactive calls. Cut-off read from the data, not from the text of the source: active = GI50 up to about 1.1 µM and inactive = higher.

Legend:
Experiment in all cases: growth of human tumour cells (NCI), 48 h
A498 = test system: A498
BT-549 = test system: BT-549
CAKI-1 = test system: CAKI-1
HCT-116 = test system: HCT-116
HOP-92 = test system: HOP-92
HT-29 = test system: HT-29
MDA-MB-231 = test system: MDA-MB-231
MOLT-4 = test system: MOLT-4
Malme-3M = test system: Malme-3M
NCI-H23 = test system: NCI-H23
OVCAR-5 = test system: OVCAR-5
OVCAR-8 = test system: OVCAR-8
RPMI-8226 = test system: RPMI-8226
RXF 393 = test system: RXF 393
SF-295 = test system: SF-295
SK-MEL-5 = test system: SK-MEL-5
SNB-75 = test system: SNB-75
SR = test system: SR
SW-620 = test system: SW-620
HCC 2998 = test system: HCC 2998

Row | SMILES | GI50 (A498) | GI50 (BT-549) | GI50 (CAKI-1) | GI50 (HCT-116) | GI50 (HOP-92) | GI50 (HT-29) | GI50 (MDA-MB-231) | GI50 (MOLT-4) | GI50 (Malme-3M) | GI50 (NCI-H23) | GI50 (OVCAR-5) | GI50 (OVCAR-8) | GI50 (RPMI-8226) | GI50 (RXF 393) | GI50 (SF-295) | GI50 (SK-MEL-5) | GI50 (SNB-75) | GI50 (SR) | GI50 (SW-620) | GI50 (HCC 2998)
1 | CCN(CC)CCCNc1ccc([N+](=O)[O-])c2nc3ccc(OC)cc3c(N)c12 | > 10 µM (inactive) | 1.53 µM (inactive) | > 10 µM (inactive) | 1.05 µM (active) | > 3.65 µM (inactive) | 1.77 µM (inactive) | 1.7 µM (inactive) | 1.33 µM (inactive) | > 10 µM (inactive) | 2.29 µM (inactive) | > 10 µM (inactive) | 1.95 µM (inactive) | 2 µM (inactive) | > 10 µM (inactive) | 1.82 µM (inactive) | > 5.16 µM (inactive) | 1.93 µM (inactive) | 1.51 µM (inactive) | 1.49 µM (inactive) | 
2 | O=C(O)CCCc1ccc2ccccc2c1 | > 100 µM (inactive) | > 100 µM (inactive) | > 100 µM (inactive) | > 100 µM (inactive) | > 100 µM (inactive) | > 100 µM (inactive) | > 100 µM (inactive) | > 100 µM (inactive) |  | > 100 µM (inactive) | > 100 µM (inactive) | > 100 µM (inactive) | 42.9 µM (inactive) | > 100 µM (inactive) | > 100 µM (inactive) | > 100 µM (inactive) |  | 97.9 µM (inactive) | > 100 µM (inactive) | > 100 µM (inactive)
3 | N#Cc1c(N)nc2c(c1-c1ccc(Br)cc1)CSc1ccccc1-2 | > 100 µM (inactive) | > 100 µM (inactive) | 14.9 µM (inactive) | 18.5 µM (inactive) | 9.02 µM (inactive) | 34.6 µM (inactive) | 13.3 µM (inactive) | 38.7 µM (inactive) | > 100 µM (inactive) | 29.6 µM (inactive) |  | 55 µM (inactive) | 18.2 µM (inactive) | 20.1 µM (inactive) |  | 58.7 µM (inactive) | 31.4 µM (inactive) | 68.4 µM (inactive) | 83.4 µM (inactive) | 
4 | OC[C@H]1O[C@@H]2O[C@@](COCc3ccccc3)([C@H](OCc3ccccc3)[C@H]2O)[C@@H]1OCc1ccccc1 | 18.1 µM (inactive) | 22.2 µM (inactive) | 15.7 µM (inactive) | 16.5 µM (inactive) | 11.9 µM (inactive) | 4.81 µM (inactive) | 15.3 µM (inactive) | 4.98 µM (inactive) |  | 16.6 µM (inactive) | 17.1 µM (inactive) | 14.6 µM (inactive) | 13.7 µM (inactive) |  | 15.3 µM (inactive) | 15.3 µM (inactive) | 16.2 µM (inactive) | 2.33 µM (inactive) | 20.2 µM (inactive) | 
5 | CCOC(=O)C1=C(C)N(C)C23OC4(C(=O)OC)CC2c2ccccc2C1N3C4=O (configuration not stated) | > 100 µM (inactive) | > 100 µM (inactive) | > 100 µM (inactive) | 49.8 µM (inactive) | > 100 µM (inactive) | 51.9 µM (inactive) | > 100 µM (inactive) | 74.8 µM (inactive) | > 100 µM (inactive) | > 100 µM (inactive) | > 100 µM (inactive) | > 100 µM (inactive) | 44.8 µM (inactive) |  | 39.3 µM (inactive) | 32.5 µM (inactive) | > 100 µM (inactive) | 16.5 µM (inactive) | 41.9 µM (inactive) | 12.4 µM (inactive)
6 | CCNC(C)(C)C(SS)c1ccc(Br)cc1 (configuration not stated) | > 100 µM (inactive) | > 100 µM (inactive) | 78 µM (inactive) | 29.6 µM (inactive) | > 100 µM (inactive) | 25.8 µM (inactive) | > 100 µM (inactive) | 21.1 µM (inactive) | > 100 µM (inactive) | > 100 µM (inactive) | > 100 µM (inactive) | > 100 µM (inactive) | 27.8 µM (inactive) | 46 µM (inactive) | > 100 µM (inactive) | 91.4 µM (inactive) | > 100 µM (inactive) | 30.4 µM (inactive) | 22.4 µM (inactive) | 
7 | CCN(CC)C(=S)Oc1cc2oc(=O)cc(C)c2cc1Cl | > 100 µM (inactive) | > 100 µM (inactive) | > 100 µM (inactive) | > 100 µM (inactive) | 56 µM (inactive) | > 100 µM (inactive) | > 100 µM (inactive) | > 100 µM (inactive) |  | > 100 µM (inactive) | > 100 µM (inactive) | > 100 µM (inactive) | > 100 µM (inactive) | 25.5 µM (inactive) | 66.7 µM (inactive) | > 100 µM (inactive) |  | > 100 µM (inactive) | > 100 µM (inactive) | 52.7 µM (inactive)
8 | CCOC(=O)c1c(C)nc2c(c1-c1cn(-c3ccccc3)nc1-c1ccccc1)C(=O)c1ccccc1-2 | > 100 µM (inactive) | > 100 µM (inactive) | > 100 µM (inactive) | > 100 µM (inactive) | > 100 µM (inactive) | 13.8 µM (inactive) | > 100 µM (inactive) | > 100 µM (inactive) | > 100 µM (inactive) | > 100 µM (inactive) | > 100 µM (inactive) | > 100 µM (inactive) |  | > 100 µM (inactive) | > 100 µM (inactive) | > 100 µM (inactive) | > 100 µM (inactive) | > 10 µM (inactive) | > 100 µM (inactive) | 
9 | COc1cc2c(/C=C3/C(=O)Nc4cc(C)c(O)cc43)c(Cl)[nH]c2cc1C | 13.9 µM (inactive) | 6.75 µM (inactive) | 2.55 µM (inactive) | 2.64 µM (inactive) | 23 µM (inactive) | 2.33 µM (inactive) | 2.59 µM (inactive) | 0.148 µM (active) | 0.407 µM (active) | 1.26 µM (inactive) | 4.33 µM (inactive) | 3.69 µM (inactive) | 1.75 µM (inactive) | 1.66 µM (inactive) | 1.52 µM (inactive) | 2.31 µM (inactive) | 2.05 µM (inactive) | 0.376 µM (active) | 2.83 µM (inactive) | 
10 | COc1ccc2c(c1)-c1nc(=O)n(CCCN(C)C)c3ccc([N+](=O)[O-])c(c13)N2 | 3.39 µM (inactive) | 3.85 µM (inactive) | 0.434 µM (active) | 0.293 µM (active) | 1.57 µM (inactive) | 0.473 µM (active) | 0.561 µM (active) | 0.215 µM (active) | 0.752 µM (active) | 1.1 µM (active) | 1.15 µM (inactive) | 0.724 µM (active) | 0.231 µM (active) |  | 0.791 µM (active) | 0.875 µM (active) | 1.28 µM (inactive) | 0.406 µM (active) | 0.282 µM (active) | 1.06 µM (active)
11 | Cc1cc(N(CCC#N)CCC#N)ccc1C(/N=N/c1ccccc1)=N\NC(=O)c1cc(Cl)ccc1O | 59.2 µM (inactive) | 18.2 µM (inactive) | 46.8 µM (inactive) | 15.7 µM (inactive) |  | 15.5 µM (inactive) | 27.1 µM (inactive) | 39 µM (inactive) | 27.9 µM (inactive) | 13.1 µM (inactive) | > 10 µM (inactive) | 21.5 µM (inactive) | 64.7 µM (inactive) | 23.3 µM (inactive) | 18.5 µM (inactive) | 21.5 µM (inactive) | 77.6 µM (inactive) | 13.5 µM (inactive) |  | 15.8 µM (inactive)
12 | CN(C)/N=N/c1nc2c(c(=O)n(C)c(=O)n2C)n1C | > 100 µM (inactive) | > 100 µM (inactive) | > 100 µM (inactive) | > 100 µM (inactive) |  | > 100 µM (inactive) | > 100 µM (inactive) | > 100 µM (inactive) | > 100 µM (inactive) |  | > 100 µM (inactive) | > 100 µM (inactive) | > 100 µM (inactive) | > 100 µM (inactive) | > 100 µM (inactive) | > 100 µM (inactive) | > 100 µM (inactive) | 4.04 µM (inactive) | > 100 µM (inactive) | > 100 µM (inactive)
13 | COC1=C(OC)C(=O)C(Cc2c(C)nc3sc(C)cn23)=C(C)C1=O | 33 µM (inactive) | 16.9 µM (inactive) | 20.4 µM (inactive) | 19.8 µM (inactive) |  | 20.2 µM (inactive) | 14.7 µM (inactive) | 1.7 µM (inactive) | 14.9 µM (inactive) | 15 µM (inactive) | 22.2 µM (inactive) | 17.1 µM (inactive) | 16.3 µM (inactive) | 20.9 µM (inactive) | 19.1 µM (inactive) | 15.2 µM (inactive) |  | 17.9 µM (inactive) | 25.5 µM (inactive) | 29 µM (inactive)
14 | O=C(Nc1ccccc1)n1[nH]c(=O)n(-c2ccccc2)c1=O | > 100 µM (inactive) | > 100 µM (inactive) | > 100 µM (inactive) | > 100 µM (inactive) | > 100 µM (inactive) | > 100 µM (inactive) | > 100 µM (inactive) |  | > 100 µM (inactive) | > 100 µM (inactive) |  | > 100 µM (inactive) | > 100 µM (inactive) |  | > 100 µM (inactive) | > 100 µM (inactive) | > 100 µM (inactive) | > 100 µM (inactive) | > 100 µM (inactive) | > 100 µM (inactive)
15 | COc1cc(S(=O)(=O)Nc2nc(-c3ccc(N4C(=O)/C(=C/C=C/c5ccccc5)N=C4c4ccccc4)cc3)cs2)ccc1Cl | > 100 µM (inactive) | 45 µM (inactive) | > 100 µM (inactive) | 78.9 µM (inactive) | 28.3 µM (inactive) | > 100 µM (inactive) | 34.3 µM (inactive) | 69 µM (inactive) | 29.2 µM (inactive) | > 100 µM (inactive) | > 100 µM (inactive) | > 100 µM (inactive) |  | 37.6 µM (inactive) | > 100 µM (inactive) | 53 µM (inactive) | 93.1 µM (inactive) | 58.3 µM (inactive) | > 100 µM (inactive) | 
